Laboratory results reported in BindingDB's records for doi:10.1021/acschembio.6b00250 (Chinese Academy of Sciences, 2016).

Assays:
Experiment in all cases: Invitrogen SelectScreen Enzymatic Assay
[1] = biological target: Phosphatidylinositol 4-kinase beta (Homo sapiens, UniProt Q9UBF8)
Procedure: (§1) The enzymatic assay was performed using the LifeTechnology SelectScreen.

[2] = biological target: Phosphatidylinositol 3-kinase regulatory subunit alpha/4,5-bisphosphate 3-kinase catalytic subunit delta isoform (Homo sapiens, UniProt O00329)
Procedure: as §1

[3] = biological target: Phosphatidylinositol 4,5-bisphosphate 3-kinase catalytic subunit gamma isoform (Homo sapiens, UniProt P48736)
Procedure: as §1

[4] = biological target: Serine/threonine-protein kinase 16 (Homo sapiens, UniProt O75716)
Procedure: as §1

[5] = biological target: Phosphatidylinositol 3-kinase regulatory subunit alpha/4,5-bisphosphate 3-kinase catalytic subunit alpha isoform (Homo sapiens, UniProt P42336)
Procedure: as §1

[6] = biological target: Phosphatidylinositol 4-kinase alpha (Homo sapiens, UniProt P42356)
Procedure: as §1

[7] = biological target: Phosphatidylinositol 3-kinase catalytic subunit type 3 (Homo sapiens, UniProt Q8NEB9)
Procedure: as §1

[8] = biological target: Phosphatidylinositol 4-phosphate 3-kinase C2 domain-containing subunit alpha (Homo sapiens, UniProt O00443)
Procedure: as §1

[9] = biological target: Phosphatidylinositol 4-phosphate 3-kinase C2 domain-containing subunit beta (Homo sapiens, UniProt O00750)
Procedure: as §1

Chain of Phosphatidylinositol 4-phosphate 3-kinase C2 domain-containing subunit alpha (O00443 whole entry, the tested form may be a part): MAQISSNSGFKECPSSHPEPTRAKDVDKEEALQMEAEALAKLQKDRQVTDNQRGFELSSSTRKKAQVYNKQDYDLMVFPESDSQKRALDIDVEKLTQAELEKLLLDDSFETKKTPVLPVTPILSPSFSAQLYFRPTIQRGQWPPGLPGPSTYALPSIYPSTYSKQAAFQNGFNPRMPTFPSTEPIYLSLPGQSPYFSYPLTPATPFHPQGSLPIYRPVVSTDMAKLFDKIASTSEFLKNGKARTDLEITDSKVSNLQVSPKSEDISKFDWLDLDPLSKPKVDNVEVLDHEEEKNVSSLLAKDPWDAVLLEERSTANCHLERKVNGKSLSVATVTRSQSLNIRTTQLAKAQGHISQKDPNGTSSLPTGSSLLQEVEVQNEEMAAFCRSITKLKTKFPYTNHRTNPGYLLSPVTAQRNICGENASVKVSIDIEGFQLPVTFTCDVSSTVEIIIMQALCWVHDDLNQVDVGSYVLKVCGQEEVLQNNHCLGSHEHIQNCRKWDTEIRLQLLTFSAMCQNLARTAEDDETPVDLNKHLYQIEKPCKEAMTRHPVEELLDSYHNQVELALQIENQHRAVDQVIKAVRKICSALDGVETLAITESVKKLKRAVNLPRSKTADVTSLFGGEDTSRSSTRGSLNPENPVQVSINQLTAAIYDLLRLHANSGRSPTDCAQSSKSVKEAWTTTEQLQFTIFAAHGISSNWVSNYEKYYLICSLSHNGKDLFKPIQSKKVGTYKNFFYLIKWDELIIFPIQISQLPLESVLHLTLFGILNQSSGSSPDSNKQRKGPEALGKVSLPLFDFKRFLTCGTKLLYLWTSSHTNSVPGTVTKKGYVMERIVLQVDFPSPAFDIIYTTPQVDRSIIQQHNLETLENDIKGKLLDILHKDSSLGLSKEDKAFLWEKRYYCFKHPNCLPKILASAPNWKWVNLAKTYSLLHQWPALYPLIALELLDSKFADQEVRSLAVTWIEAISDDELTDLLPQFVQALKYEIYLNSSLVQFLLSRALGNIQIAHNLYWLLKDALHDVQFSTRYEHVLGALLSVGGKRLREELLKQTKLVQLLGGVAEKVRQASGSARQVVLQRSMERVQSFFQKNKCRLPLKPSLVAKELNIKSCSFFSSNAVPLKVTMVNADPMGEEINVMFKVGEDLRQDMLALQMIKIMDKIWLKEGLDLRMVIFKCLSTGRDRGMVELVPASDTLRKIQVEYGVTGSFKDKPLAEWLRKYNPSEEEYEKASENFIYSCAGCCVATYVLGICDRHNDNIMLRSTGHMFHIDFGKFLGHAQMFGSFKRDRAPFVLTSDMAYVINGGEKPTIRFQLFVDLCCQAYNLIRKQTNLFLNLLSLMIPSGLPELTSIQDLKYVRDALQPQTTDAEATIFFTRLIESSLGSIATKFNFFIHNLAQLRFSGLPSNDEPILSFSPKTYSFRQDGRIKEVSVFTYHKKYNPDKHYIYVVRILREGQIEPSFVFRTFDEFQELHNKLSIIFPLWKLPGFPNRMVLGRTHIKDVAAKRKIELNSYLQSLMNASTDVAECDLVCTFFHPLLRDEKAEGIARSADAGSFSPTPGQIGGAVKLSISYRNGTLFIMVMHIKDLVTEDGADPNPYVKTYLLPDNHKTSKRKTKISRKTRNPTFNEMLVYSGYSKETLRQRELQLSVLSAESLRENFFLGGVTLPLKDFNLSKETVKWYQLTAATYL
Chain of Phosphatidylinositol 4,5-bisphosphate 3-kinase catalytic subunit gamma isoform (P48736 whole entry, canonical isoform): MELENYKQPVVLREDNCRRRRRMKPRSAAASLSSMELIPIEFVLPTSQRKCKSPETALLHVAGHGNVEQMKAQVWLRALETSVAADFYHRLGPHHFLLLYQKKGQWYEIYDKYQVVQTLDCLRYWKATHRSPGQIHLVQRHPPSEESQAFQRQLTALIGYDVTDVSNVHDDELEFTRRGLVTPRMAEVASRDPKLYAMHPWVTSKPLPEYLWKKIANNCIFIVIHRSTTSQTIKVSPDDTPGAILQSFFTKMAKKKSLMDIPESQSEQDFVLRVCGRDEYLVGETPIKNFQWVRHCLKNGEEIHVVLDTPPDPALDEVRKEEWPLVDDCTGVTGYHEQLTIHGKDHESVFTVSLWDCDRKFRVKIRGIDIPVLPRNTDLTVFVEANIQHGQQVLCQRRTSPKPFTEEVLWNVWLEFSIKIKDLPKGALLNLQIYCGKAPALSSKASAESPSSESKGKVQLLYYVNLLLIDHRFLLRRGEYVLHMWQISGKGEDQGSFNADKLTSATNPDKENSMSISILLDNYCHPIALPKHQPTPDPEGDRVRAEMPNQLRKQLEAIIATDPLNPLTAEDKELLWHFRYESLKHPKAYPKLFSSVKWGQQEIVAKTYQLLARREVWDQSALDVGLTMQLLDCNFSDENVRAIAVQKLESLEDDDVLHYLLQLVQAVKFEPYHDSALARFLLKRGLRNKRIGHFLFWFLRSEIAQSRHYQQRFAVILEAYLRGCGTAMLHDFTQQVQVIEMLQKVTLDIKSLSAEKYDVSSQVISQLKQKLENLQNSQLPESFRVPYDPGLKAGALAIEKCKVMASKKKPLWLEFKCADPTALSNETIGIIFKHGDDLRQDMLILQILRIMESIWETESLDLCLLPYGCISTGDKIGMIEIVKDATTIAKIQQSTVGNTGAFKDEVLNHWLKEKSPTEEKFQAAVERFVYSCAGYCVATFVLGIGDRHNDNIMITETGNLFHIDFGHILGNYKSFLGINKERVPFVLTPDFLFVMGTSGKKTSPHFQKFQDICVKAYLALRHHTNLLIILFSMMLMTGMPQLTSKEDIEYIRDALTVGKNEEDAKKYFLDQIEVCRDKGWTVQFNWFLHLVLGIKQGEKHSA
Chain of Phosphatidylinositol 3-kinase catalytic subunit type 3 (Q8NEB9 whole entry): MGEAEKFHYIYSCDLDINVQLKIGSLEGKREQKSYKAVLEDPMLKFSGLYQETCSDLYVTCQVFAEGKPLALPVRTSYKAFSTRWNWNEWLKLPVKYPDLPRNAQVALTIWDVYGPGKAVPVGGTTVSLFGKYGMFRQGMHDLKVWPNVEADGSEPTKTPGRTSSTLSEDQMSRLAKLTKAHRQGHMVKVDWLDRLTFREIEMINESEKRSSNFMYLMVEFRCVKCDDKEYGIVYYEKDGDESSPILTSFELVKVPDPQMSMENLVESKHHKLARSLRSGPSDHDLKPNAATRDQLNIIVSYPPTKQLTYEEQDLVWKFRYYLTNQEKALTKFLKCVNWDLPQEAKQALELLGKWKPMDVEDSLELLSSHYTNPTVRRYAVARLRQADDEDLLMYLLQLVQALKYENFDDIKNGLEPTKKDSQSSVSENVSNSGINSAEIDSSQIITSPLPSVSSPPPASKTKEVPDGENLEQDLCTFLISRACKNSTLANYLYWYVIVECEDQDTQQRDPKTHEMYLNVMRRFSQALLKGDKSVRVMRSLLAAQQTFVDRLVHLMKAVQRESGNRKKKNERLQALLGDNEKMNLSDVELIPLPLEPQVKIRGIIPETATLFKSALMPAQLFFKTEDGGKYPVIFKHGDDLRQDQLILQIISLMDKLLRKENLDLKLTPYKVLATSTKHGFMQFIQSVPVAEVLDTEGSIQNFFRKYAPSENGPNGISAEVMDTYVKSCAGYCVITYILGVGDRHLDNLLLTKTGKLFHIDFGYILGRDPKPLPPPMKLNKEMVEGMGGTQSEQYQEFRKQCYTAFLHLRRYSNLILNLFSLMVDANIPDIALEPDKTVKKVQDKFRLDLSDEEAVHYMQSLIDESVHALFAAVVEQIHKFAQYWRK
Chain of Phosphatidylinositol 4-kinase beta (Q9UBF8 whole entry): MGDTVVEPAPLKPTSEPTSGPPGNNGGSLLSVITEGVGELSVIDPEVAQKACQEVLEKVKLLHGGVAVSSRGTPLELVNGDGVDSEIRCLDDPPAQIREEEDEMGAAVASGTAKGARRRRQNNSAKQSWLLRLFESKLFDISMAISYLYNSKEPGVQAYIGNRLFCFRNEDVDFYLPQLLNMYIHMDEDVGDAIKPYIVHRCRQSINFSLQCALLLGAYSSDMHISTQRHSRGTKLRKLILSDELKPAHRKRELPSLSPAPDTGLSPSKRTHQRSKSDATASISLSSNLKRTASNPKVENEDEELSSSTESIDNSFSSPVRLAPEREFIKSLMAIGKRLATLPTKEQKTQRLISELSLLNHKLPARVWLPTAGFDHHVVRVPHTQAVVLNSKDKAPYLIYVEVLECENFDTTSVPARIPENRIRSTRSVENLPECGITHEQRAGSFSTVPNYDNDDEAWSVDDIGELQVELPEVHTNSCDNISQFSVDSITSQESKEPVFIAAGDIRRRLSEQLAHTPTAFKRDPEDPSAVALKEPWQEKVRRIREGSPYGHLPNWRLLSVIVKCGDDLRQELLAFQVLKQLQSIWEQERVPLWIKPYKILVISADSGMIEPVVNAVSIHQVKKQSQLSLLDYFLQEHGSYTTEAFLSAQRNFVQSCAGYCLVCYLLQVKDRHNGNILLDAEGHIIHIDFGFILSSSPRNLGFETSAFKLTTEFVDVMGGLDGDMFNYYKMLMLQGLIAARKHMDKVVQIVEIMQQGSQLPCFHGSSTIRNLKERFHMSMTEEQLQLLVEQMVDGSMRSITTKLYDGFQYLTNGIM
Chain of Serine/threonine-protein kinase 16 (O75716 whole entry): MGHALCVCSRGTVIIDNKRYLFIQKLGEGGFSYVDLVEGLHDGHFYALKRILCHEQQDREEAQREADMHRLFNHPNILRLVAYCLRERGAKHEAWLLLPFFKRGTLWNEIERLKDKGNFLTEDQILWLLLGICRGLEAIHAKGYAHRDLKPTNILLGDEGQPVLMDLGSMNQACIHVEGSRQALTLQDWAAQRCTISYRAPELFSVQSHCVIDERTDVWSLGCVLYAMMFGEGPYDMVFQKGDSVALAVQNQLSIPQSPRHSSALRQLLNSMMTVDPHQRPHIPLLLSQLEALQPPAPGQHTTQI

IC50 [1]: > 10 µM
IC50 [2]: 0.856 µM
IC50 [3]: 0.867 µM
IC50 [4]: 0.295 µM
IC50 [5]: 1.07 µM
IC50 [6]: > 10 µM
IC50 [7]: 7.94 µM
IC50 [8]: 4.86 µM
IC50 [9]: 9.33 µM
Structure (SMILES): O=c1ccc2cnc3[nH]ccc3c2n1-c1ccc(F)c(O)c1 [STK16-IN-1]
